Reference: article PMC10974290, “Biocatalytic Synthesis of Coumarin S-Glycosides: Towards Non-Cytotoxic Probes for Biomedical Imaging and Sensing” (Molecules, 2024)

Experiments:
[1] = UV-visible absorbance spectroscopy; format: physicochemical; settings: 0.1 mM; for emax (molar absorption coefficient): 7-MC + DTT 10 mM; for Absorbance ε (molar absorption coefficient) / Absorbance λmax abs: 7-MC in presence of 10 mM DTT
Description: Subsequently, the analysis was carried out under two distinct conditions: firstly, in DMF, at a final concentration of 0.1 mM; and secondly, in a mixture PBS:DMF (99:1%), at the same final concentration of 0.1 mM. These two experimental setups provided valuable insights into the spectral characteristics of the compounds in both a pure organic solvent and a solvent system closely resembling physiological conditions. The maxima absorption wavelengths are compiled in Table 3. These bands were attributed to transitions within the benzene and pyrone moieties, considered together as a single chromophore. […] Similarly, 7-MC and S-1 to S-6 compounds also absorb in this UV range (λmax = 328–330 nm). […] In the organic solvent, these values are found to be higher compared to those calculated for 4-MUB and 7-MC. Conversely, in PBS, the extinction coefficients for S-glycosides are lower compared to the parent thiol 7-MC. This highlights the profound impact of glycosylation on absorption properties, as well as the importance of solvent choice.
(§1) Both absorbance and fluorescence spectra were measured on a Tecan […] M PLEX 200 Pro plate reader equipped with monochromator allowing a scan from 230 to 1000 nm. All synthesized molecules were initially dissolved in 10 mM DMF and subsequently diluted in freshly prepared PBS (pH = 7.4) to achieve a final concentration of 0.1 mM. The solutions were then transferred to a Corning (Corning, NY, USA) UV-transparent 96-well plate. Absorbance spectra were recorded from 230 to 800 nm. Emission fluorescence spectra were recorded from 320 to 800 nm, under excitation at 280 nm. Excitation fluorescence spectra were recorded from 230 to 380 nm for an emission at 420 nm. All spectra were recorded with a wavelength step size of 2 nm. Data processing was performed with Excel software 2016. Fluorescence spectra are presented as normalized spectra ranging from 0 to 1. The relative quantum yields were calculated according to Equation (1):(1) ΦT=(AR/AT)×(FT/FR)×[…]×ΦR where Φ is the fluorescence quantum yield, A is the absorbance at the excitation wavelength, F is the area under the corrected emission curve, and n is the refractive index of the solvent for the test compound (T) and the reference (R). The 4-MUB value in DMF was used as the reference. The LOD (resp. LOQ) values were determined as the minimal concentration of product S-3 required to yield a fluorescence that was twice greater than (respectively, 5-times that of) the fluorescence noise on a sample containing PBS, using an excitation wavelength of 280 nm and an emission wavelength of 386 nm (Figure S44).

[2] = Fluorescence excitation/emission spectroscopy and relative quantum yield; format: physicochemical; settings: 7-MC in presence of 10 mM DTT; for Fluorescence λmax ex: emission at 420 nm; for Fluorescence λmax em: excitation at 280 nm; for Relative quantum yield Φ: relative to 4-MUB in DMF
Description: The values determined were close to those observed for the 4-MUB fluorophore.
as §1, with “All synthesized molecules were initially dissolved in 10 mM DMF and subsequently diluted in freshly prepared PBS (pH = 7.4) to achieve a final concentration of 0.1 mM.” left out

Structure (SMILES) | emax (molar absorption coefficient) ([1]; DMF) | Absorbance ε (molar absorption coefficient) ([1]; DMF) | Absorbance λmax abs ([1]; DMF) | emax (molar absorption coefficient) ([1]; PBS 1x (pH = 7.4)) | Absorbance ε (molar absorption coefficient) ([1]; PBS (PBS:DMF 99:1, pH 7.4)) | Absorbance λmax abs ([1]; PBS (PBS:DMF 99:1, pH 7.4)) | Fluorescence λmax ex ([2]; DMF, 0.1 mM) | Fluorescence λmax em ([2]; DMF, 0.1 mM) | Relative quantum yield Φ ([2]; DMF) | Fluorescence λmax ex ([2]; PBS pH 7.4, 0.1 mM) | Fluorescence λmax em ([2]; PBS pH 7.4, 0.1 mM) | Relative quantum yield Φ ([2]; PBS)
Cc1cc(=O)oc2cc(S[C@@H]3O[C@H](CO)[C@@H](O)[C@H](O)[C@H]3O)ccc12 [Compound S-3, 4-Methylumbellifer-7-yl 1-thio-β-D-glucopyranoside] | 18634,68658 cm-1 M-1 | 18.6 10^3 M^−1 cm^−1 | 330 nm | 20778,59706 cm-1 M-1 | 20.8 10^3 M^−1 cm^−1 | 326 nm | 332 nm | 386 nm | 0.198 | 332 nm | 402 nm | 0.242
Cc1cc(=O)oc2cc(S[C@@H]3OC[C@@H](O)[C@H](O)[C@H]3O)ccc12 [Compound S-2, 4-Methylumbellifer-7-yl 1-thio-β-D-xylopyranoside] | – | 19.5 10^3 M^−1 cm^−1 | 330 nm | 26044,28033 cm-1 M-1 | 26.0 10^3 M^−1 cm^−1 | 324 nm | 332 nm | 386 nm | 0.186 | 326 nm | 402 nm | 0.181
Cc1cc(=O)oc2cc(S[C@@H]3O[C@H](C(=O)O)[C@@H](O)[C@H](O)[C@H]3O)ccc12 [Compound S-1, 4-Methylumbellifer-7-yl 1-thio-β-D-glucopyranosiduronic acid] | 26660,51579 cm-1 M-1 | 26.7 10^3 M^−1 cm^−1 | 330 nm | 23328,41338 cm-1 M-1 | 23.3 10^3 M^−1 cm^−1 | 326 nm | 332 nm | 390 nm | 0.182 | 332 nm | 402 nm | 0.235
Cc1cc(=O)oc2cc(S)ccc12 [Compound 7-MC, 7-mercapto-4-methylcoumarin, reference compound] | 10409,59 cm-1 M-1 | 10.4 10^3 M^−1 cm^−1 | 328 nm | 28929,88854 cm-1 M-1 | 28.9 10^3 M^−1 cm^−1 | 368 nm | 334 nm | 392 nm | 0.009 | 321 nm | 448 nm | 0.020
Cc1cc(=O)oc2cc(S[C@@H]3O[C@H](CO)[C@H](O)[C@H](O)[C@H]3O)ccc12 [Compound S-4, 4-Methylumbellifer-7-yl 1-thio-β-D-galactopyranoside] | 22265,68277 cm-1 M-1 | 22.3 10^3 M^−1 cm^−1 | 330 nm | 18357,93367 cm-1 M-1 | 18.4 10^3 M^−1 cm^−1 | 326 nm | 334 nm | 388 nm | 0.223 | 332 nm | 402 nm | 0.271

More lines, now with the values ahead:

emax (molar absorption coefficient) ([1]; DMF) | Absorbance ε (molar absorption coefficient) ([1]; DMF) | Absorbance λmax abs ([1]; DMF) | emax (molar absorption coefficient) ([1]; PBS 1x (pH = 7.4)) | Absorbance ε (molar absorption coefficient) ([1]; PBS (PBS:DMF 99:1, pH 7.4)) | Absorbance λmax abs ([1]; PBS (PBS:DMF 99:1, pH 7.4)) | Fluorescence λmax ex ([2]; DMF, 0.1 mM) | Fluorescence λmax em ([2]; DMF, 0.1 mM) | Relative quantum yield Φ ([2]; DMF) | Fluorescence λmax ex ([2]; PBS pH 7.4, 0.1 mM) | Fluorescence λmax em ([2]; PBS pH 7.4, 0.1 mM) | Relative quantum yield Φ ([2]; PBS) | Structure (SMILES)
22294,93104 cm-1 M-1 | 22.3 10^3 M^−1 cm^−1 | 330 nm | – | 10.4 10^3 M^−1 cm^−1 | 326 nm | 334 nm | 386 nm | 0.183 | 326 nm | 402 nm | 0.228 | Cc1cc(=O)oc2cc(S[C@@H]3O[C@H](C)[C@H](O)[C@H](O)[C@H]3O)ccc12 [Compound S-5, 4-Methylumbellifer-7-yl 1-thio-β-D-fucopyranoside]
22265,68277 cm-1 M-1 | 22.3 10^3 M^−1 cm^−1 | 330 nm | 19811,80752 cm-1 M-1 | 19.8 10^3 M^−1 cm^−1 | 326 nm | 334 nm | 388 nm | 0.223 | 332 nm | 416 nm | 0.185 | Cc1cc(=O)oc2cc(S[C@H]3O[C@H](CO)[C@H](O)[C@H](O)[C@H]3O)ccc12 [Compound S-6, 4-Methylumbellifer-7-yl 1-thio-α-D-galactopyranoside]
